Test results as given in US10280169B2, “Biaryl bruton's tyrosine kinase inhibitors” (BIOGEN MA INC., priority 2013, dated 2019).

What was measured:
BTK = target: T1, BTK (Homo sapiens, UniProt Q06187); assay: In vitro BTK kinase assay: BTK-POLYGAT-LS assay; assay type: biochemical; conditions: 10 uM ATP, read-out: IC50 (10 uMATP)
T1 construct: purchased Upstate 14-552

pBTK = target: T2, pBTK (Homo sapiens, UniProt Q06187); assay: In vitro PD assay in whole blood (pBTK assay); assay type: cell-based; conditions: 30 min at 37° C.
T2 construct: Heparinized venous blood was purchased from Bioreclamation, Inc. or SeraCare Life Sciences; tissue Bioreclamation, Inc. or SeraCare Life Sciences; host or cells: heparinized venous whole blood
T2 sequence (Q06187 whole entry): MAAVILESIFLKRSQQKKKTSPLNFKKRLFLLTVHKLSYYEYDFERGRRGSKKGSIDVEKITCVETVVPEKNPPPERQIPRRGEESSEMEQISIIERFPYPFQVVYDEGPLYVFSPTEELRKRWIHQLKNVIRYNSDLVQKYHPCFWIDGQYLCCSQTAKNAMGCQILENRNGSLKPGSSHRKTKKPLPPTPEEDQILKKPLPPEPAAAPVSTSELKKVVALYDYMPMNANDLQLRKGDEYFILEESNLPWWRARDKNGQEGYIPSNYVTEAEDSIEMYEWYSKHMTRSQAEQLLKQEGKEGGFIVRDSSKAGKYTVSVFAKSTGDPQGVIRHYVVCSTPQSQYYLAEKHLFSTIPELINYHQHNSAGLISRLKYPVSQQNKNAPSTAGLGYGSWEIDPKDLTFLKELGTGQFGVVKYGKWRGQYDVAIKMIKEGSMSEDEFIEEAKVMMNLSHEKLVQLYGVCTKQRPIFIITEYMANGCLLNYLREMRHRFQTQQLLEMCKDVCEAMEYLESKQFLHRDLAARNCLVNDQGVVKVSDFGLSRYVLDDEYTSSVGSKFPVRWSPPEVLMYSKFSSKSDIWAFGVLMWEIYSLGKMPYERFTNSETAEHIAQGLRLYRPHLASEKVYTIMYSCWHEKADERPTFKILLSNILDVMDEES
Experimental: Heparinized venous blood was purchased from Bioreclamation, Inc. or SeraCare Life Sciences and shipped overnight. Whole blood was aliquoted into 96-well plate and “spiked” with serial dilutions of test compound in DMSO or with DMSO without drug. The final concentration of DMSO in all wells was 0.1%. The plate was incubated at 37° C. for 30 min. Lysis buffer containing protease and phosphatase inhibitors was added to the drug-containing samples and one of the DMSO-only samples (+PPi, high control), while lysis buffer containing protease inhibitors was added to the other DMSO-only samples (−PPi, low control). All of the lysed whole blood samples were subjected to the total BTK capture and phosphotyrosine detection method described in Example 30. ECL values were graphed in Prism and a best-fit curve with restrictions on the maximum and minimum defined by the +PPi high and −PPi low controls was used to estimate the test compound concentration that results in 50% inhibition of ECL signal by interpolation.
In some instances where a compound tested has activity “D”, other structurally similar compounds beyond the measurable limits of the assay are not included in Table 2.

T1 sequence (Q06187 whole entry): as above

Structure (SMILES) | IC50 (BTK) | IC50 (pBTK)
Cc1cc(-c2ncnc3[nH]c(-c4cnn(C)c4)cc23)ccc1C(CO)NC(=O)c1cc2c(s1)CCOC2 (centres unmarked) [Example I-32, N-(2-hydroxy-1-(2-methyl-4-(6-(1-methyl-1H-pyrazol-4-yl)-7H-pyrrolo[2,3-d]pyrimidin-4-yl)phenyl)ethyl)-6,7-dihydro-4H-thieno[3,2-c]pyran-2-carboxamide] | < 10 nM | < 500 nM
Cc1cc(-c2ncnc3[nH]c(-c4cnn(C)c4)cc23)ccc1C(C)NC(=O)c1cc2c(s1)CCOC2 (centres unmarked) [Example I-113, N-(1-(2-methyl-4-(6-(1-methyl-1H-pyrazol-4-yl)-7H-pyrrolo[2,3-d]pyrimidin-4-yl)phenyl)ethyl)-6,7-dihydro-4H-thieno[3,2-c]pyran-2-carboxamide] | < 10 nM | 1500 to 10000 nM
Cc1cc(-c2ncnc3cc(C4CCN(C)CC4)[nH]c23)ccc1CNC(=O)c1cnc(C(C)(C)C)s1 [Example I-25, 2-(tert-butyl)-N-(2-methyl-4-(6-(1-methylpiperidin-4-yl)-5H-pyrrolo[3,2-d]pyrimidin-4-yl)benzyl)thiazole-5-carboxamide] | < 10 nM | 500 to 1500 nM
Cc1cc(-c2ncnc3cc(-c4cnn(C)c4)[nH]c23)ccc1CNC(=O)c1cc2c(s1)CCOC2 [Example I-42, N-(2-methyl-4-(6-(1-methyl-1H-pyrazol-4-yl)-5H-pyrrolo[3,2-d]pyrimidin-4-yl)benzyl)-6,7-dihydro-4H-thieno[3,2-c]pyran-2-carboxamide] | < 10 nM | < 500 nM
Cc1cc(-c2ncnc3[nH]ccc23)ccc1C(C)NC(=O)c1cc2c(s1)CCCC2 (centres unmarked) [Example I-78, N-(1-(2-methyl-4-(7H-pyrrolo[2,3-d]pyrimidin-4-yl)phenyl)ethyl)-4,5,6,7-tetrahydrobenzo[b]thiophene-2-carboxamide] | < 10 nM | 1500 to 10000 nM
Cc1cc(-c2ncnc3cc(-c4cnn(C)c4)[nH]c23)ccc1C(CO)NC(=O)c1cnc(C(C)(C)C)s1 (centres unmarked) [Example I-44, 2-(tert-butyl)-N-(2-hydroxy-1-(2-methyl-4-(6-(1-methyl-1H-pyrazol-4-yl)-5H-pyrrolo[3,2-d]pyrimidin-4-yl)phenyl)ethyl)thiazole-5-carboxamide] | < 10 nM | 500 to 1500 nM
Cc1cc(-c2ncnc3cc(-c4cnn(C)c4)[nH]c23)ccc1CNC(=O)c1ncc(C(C)(C)C)s1 [Example I-36] | < 10 nM | < 500 nM
Cc1cc(-c2ncnc3nc(N4CCC(C(=O)O)CC4)[nH]c23)ccc1CNC(=O)c1cnc(C(C)(C)C)s1 [Example I-52, 1-(6-(4-((2-(tert-butyl)thiazole-5-carboxamido)methyl)-3-methylphenyl)-7H-purin-8-yl)piperidine-4-carboxylic acid] | < 10 nM | < 500 nM
Cc1cc(-c2ncnc3[nH]ccc23)ccc1CNC(=O)c1ccc(C(C)(C)C)cc1 [Example I-2, 4-(tert-butyl)-N-(2-methyl-4-(7H-pyrrolo[2,3-d]pyrimidin-4-yl)benzyl)benzamide] | < 10 nM | 1500 to 10000 nM
Cc1cc(-c2ncnc3cc(-c4cnn(C)c4)[nH]c23)ccc1C(CO)NC(=O)c1cc2c(s1)CCOC2 (centres unmarked) [Example I-45, N-(2-hydroxy-1-(2-methyl-4-(6-(1-methyl-1H-pyrazol-4-yl)-5H-pyrrolo[3,2-d]pyrimidin-4-yl)phenyl)ethyl)-6,7-dihydro-4H-thieno[3,2-c]pyran-2-carboxamide] | 10 to 99 nM | 1500 to 10000 nM
Cc1cc(-c2ncnc3cc(-c4cnn(C)c4)[nH]c23)ccc1C(C)NC(=O)c1cnc(C(C)(C)C)s1 (centres unmarked) [Example I-46, 2-(tert-butyl)-N-(1-(2-methyl-4-(6-(1-methyl-1H-pyrazol-4-yl)-5H-pyrrolo[3,2-d]pyrimidin-4-yl)phenyl)ethyl)thiazole-5-carboxamide] | < 10 nM | < 500 nM
Cc1cc(-c2ncnc3[nH]ncc23)ccc1CNC(=O)c1cc2c(s1)CCCC2 [Example I-85, N-(2-methyl-4-(1H-pyrazolo[3,4-d]pyrimidin-4-yl)benzyl)-4,5,6,7-tetrahydrobenzo[b]thiophene-2-carboxamide] | < 10 nM | 1500 to 10000 nM
Cc1cc(-c2ncnc3cc(C4=CCN(C(=O)N(C)C)CC4)[nH]c23)ccc1CNC(=O)c1ncc(C(C)(C)C)s1 [Example I-18, 5-(tert-butyl)-N-(4-(6-(1-(dimethylcarbamoyl)-1,2,3,6-tetrahydropyridin-4-yl)-5H-pyrrolo[3,2-d]pyrimidin-4-yl)-2-methylbenzyl)thiazole-2-carboxamide] | < 10 nM | < 500 nM
Cc1cc(-c2ncnc3cc(-c4cn[nH]c4)[nH]c23)ccc1CNC(=O)c1ncc(C(C)(C)C)s1 [Example I-41, N-(4-(6-(1H-pyrazol-4-yl)-5H-pyrrolo[3,2-d]pyrimidin-4-yl)-2-methylbenzyl)-5-(tert-butyl)thiazole-2-carboxamide] | < 10 nM | 500 to 1500 nM
Cc1cc(-c2ncnc3[nH]c(C4=CCS(=O)(=O)CC4)cc23)ccc1CNC(=O)c1cnc(C(C)(C)C)s1 [Example I-21, 2-(tert-butyl)-N-(4-(6-(1,1-dioxido-3,6-dihydro-2H-thiopyran-4-yl)-7H-pyrrolo[2,3-d]pyrimidin-4-yl)-2-methylbenzyl)thiazole-5-carboxamide] | < 10 nM | < 500 nM
O=C(N[C@H]1CCCc2cc(-c3ncnc4[nH]ccc34)ccc21)c1cc2c(s1)CCCC2 [Example I-89, (S)—N-(6-(7H-Pyrrolo[2,3-d]pyrimidin-4-yl)-1,2,3,4-tetrahydronaphthalen-1-yl)-4,5,6,7-tetrahydrobenzo[b]thiophene-2-carboxamide] | < 10 nM | 1500 to 10000 nM
CC(C)(C)c1csc(C(=O)NC2CCCc3cc(-c4ncnc5[nH]ncc45)ccc32)n1 (centres unmarked) [Example I-98, N-(6-(1H-pyrazolo[3,4-d]pyrimidin-4-yl)-1,2,3,4-tetrahydronaphthalen-1-yl)-4-(tert-butyl) thiazole-2-carboxamide] | < 10 nM | > 10000 nM
O=C(NCc1ccc(-c2ncnc3[nH]ccc23)cc1C(F)(F)F)c1nc2c(s1)CCCC2 [Example I-122, N-(4-(7H-pyrrolo[2,3-d]pyrimidin-4-yl)-2-(trifluoromethyl)benzyl)-4,5,6,7-tetrahydrobenzo[d]thiazole-2-carboxamide] | 10 to 99 nM | 1500 to 10000 nM
Cc1cc(-c2ncnc3[nH]ncc23)ccc1CNC(=O)c1nc2c(s1)CCCC2 [Example I-119, 4,5,6,7-Tetrahydro-benzothiazole-2-carboxylic acid 2-methyl-4-(1H-pyrazolo[3,4-d]pyrimidin-4-yl)-benzylamide] | < 10 nM | 1500 to 10000 nM
